Results published in paper PMC4503722, “Novel Phenotypic Outcomes Identified for a Public Collection of Approved Drugs from a Publicly Accessible Panel of Assays” (PLoS ONE, 2015).
Read-outs that look alike come from different tables or passages of the source. *1 amine or outer side, *2 acyl side, *3 side chain or, on linkers, in order; H or OH if unused. Where a SMILES comes first, the peptide text is derived from it. Bridges are numbered along the chain shown (N, C = ends). Roman numbers before positions name the chains, in order. [ ]: non-standard residue; d: D form. Actinocin(9to1) = Cc1c2oc3c(C)ccc(C(=O)[*:1])c3nc-2c(C(=O)[*:2])c(N)c1=O; NMeV = CN[C@H](C(=O)O)C(C)C; Sar = CNCC(=O)O

Experiments:
[1] = system: alkaline phosphatase (ALP) activity in C2C12 cells; type: cell-based; conditions: assay number 6; concentration response
[2] = system: nuclear β-catenin in C2C12 cells; assay: cells; type: cell-based; conditions: for WntCondMedia_bCatenin C2C12 IC50/EC50: assay number 5, concentration response
[3] = system: HeLa cells; assay: cells; type: cell-based; conditions: for Hela CellCycMod PI S Phase IC50/EC50: assay number 15
[4] = system: STC-1 cell line; type: cell-based, mouse
[5] = system: SW480; assay: cells; type: cell-based
[6] = system: HT-29; assay: cells; type: cell-based
[7] = system: INS-1E cells; assay: cells; type: cell-based, rat;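 on 5mMGluc INS1E SecretionMod IC50/EC50: secreted insulin quantified by homogeneous immunoassay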;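 on IC50/EC50, 5mMGluc INS1E SecretionMod (assay number 8): secreted insulin quantified by homogeneous immunoassay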
[8] = system: RKO; assay: cells; type: cell-based
[9] = system: SNU-C1; assay: cells; type: cell-based
[10] = system: HCT116; assay: cells; type: cell-based
[11] = system: endothelial tube formation in co-cultures of ECFCs and ADSCs treated with VEGF; assay: cells; type: cell-based, human
[12] = system: HCT116 cells treated with a GSK3β inhibitor; assay: cells; type: cell-based
[13] = system: NCI-H716 cells; assay: cells; type: cell-based, Human
[14] = system: ECFC/ADSC co-culture cell nuclei number
[15] = system: Colo320; assay: cells; type: cell-based
[16] = system: DLD-1; assay: cells; type: cell-based
[17] = molecular target: T1, hKDR (Homo sapiens, UniProt P35968); assay: Cerep LANCE kinase assay hKDR (S1 assay 32); type: biochemical; conditions: read-out: KDR
T1 construct: purchased Cerep (LANCE kinase assay platform, contract assay)
T1 sequence (P35968 20-1356): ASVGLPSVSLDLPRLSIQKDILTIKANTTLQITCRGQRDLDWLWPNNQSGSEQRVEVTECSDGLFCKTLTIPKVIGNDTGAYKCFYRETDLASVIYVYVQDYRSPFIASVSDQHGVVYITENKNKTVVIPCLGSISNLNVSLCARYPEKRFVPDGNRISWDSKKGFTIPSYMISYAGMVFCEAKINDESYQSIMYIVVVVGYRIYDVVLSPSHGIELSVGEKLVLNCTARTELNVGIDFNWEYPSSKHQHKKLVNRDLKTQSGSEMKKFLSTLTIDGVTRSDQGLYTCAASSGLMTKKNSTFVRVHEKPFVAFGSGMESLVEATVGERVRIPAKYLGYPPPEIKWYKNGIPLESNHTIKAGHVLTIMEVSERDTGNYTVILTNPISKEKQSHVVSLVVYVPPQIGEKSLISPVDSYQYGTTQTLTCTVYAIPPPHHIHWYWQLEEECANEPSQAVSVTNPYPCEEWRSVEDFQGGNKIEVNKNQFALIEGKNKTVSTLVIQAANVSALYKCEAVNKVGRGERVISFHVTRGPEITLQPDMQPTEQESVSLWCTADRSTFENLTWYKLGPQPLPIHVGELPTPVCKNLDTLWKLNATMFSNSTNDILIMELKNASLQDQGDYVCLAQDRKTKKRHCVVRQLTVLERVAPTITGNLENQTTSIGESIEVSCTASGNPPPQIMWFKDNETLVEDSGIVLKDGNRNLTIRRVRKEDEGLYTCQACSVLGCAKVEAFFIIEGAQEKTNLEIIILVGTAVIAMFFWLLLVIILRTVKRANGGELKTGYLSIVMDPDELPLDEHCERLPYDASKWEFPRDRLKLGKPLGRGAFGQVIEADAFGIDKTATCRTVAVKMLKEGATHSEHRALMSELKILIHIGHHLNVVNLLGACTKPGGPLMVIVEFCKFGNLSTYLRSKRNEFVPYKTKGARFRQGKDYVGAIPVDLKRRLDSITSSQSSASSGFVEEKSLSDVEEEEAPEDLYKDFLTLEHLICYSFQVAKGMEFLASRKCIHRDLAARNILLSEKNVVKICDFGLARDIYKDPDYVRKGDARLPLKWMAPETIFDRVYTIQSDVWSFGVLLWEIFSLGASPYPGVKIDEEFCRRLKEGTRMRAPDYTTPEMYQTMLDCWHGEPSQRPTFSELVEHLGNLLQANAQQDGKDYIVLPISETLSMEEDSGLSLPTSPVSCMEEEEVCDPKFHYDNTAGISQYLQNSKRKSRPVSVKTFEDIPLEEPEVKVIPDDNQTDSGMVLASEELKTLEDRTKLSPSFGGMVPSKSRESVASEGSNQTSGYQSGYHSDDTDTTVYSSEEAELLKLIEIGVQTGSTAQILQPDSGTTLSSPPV

[18] = molecular target: T2, hJAK2 (Homo sapiens, UniProt O60674); assay: Cerep LANCE kinase assay hJAK2 (S1 assay 33); type: biochemical; conditions: read-out: JAK2
T2 construct: purchased Cerep (LANCE kinase assay platform, contract assay)
T2 sequence (O60674 whole entry): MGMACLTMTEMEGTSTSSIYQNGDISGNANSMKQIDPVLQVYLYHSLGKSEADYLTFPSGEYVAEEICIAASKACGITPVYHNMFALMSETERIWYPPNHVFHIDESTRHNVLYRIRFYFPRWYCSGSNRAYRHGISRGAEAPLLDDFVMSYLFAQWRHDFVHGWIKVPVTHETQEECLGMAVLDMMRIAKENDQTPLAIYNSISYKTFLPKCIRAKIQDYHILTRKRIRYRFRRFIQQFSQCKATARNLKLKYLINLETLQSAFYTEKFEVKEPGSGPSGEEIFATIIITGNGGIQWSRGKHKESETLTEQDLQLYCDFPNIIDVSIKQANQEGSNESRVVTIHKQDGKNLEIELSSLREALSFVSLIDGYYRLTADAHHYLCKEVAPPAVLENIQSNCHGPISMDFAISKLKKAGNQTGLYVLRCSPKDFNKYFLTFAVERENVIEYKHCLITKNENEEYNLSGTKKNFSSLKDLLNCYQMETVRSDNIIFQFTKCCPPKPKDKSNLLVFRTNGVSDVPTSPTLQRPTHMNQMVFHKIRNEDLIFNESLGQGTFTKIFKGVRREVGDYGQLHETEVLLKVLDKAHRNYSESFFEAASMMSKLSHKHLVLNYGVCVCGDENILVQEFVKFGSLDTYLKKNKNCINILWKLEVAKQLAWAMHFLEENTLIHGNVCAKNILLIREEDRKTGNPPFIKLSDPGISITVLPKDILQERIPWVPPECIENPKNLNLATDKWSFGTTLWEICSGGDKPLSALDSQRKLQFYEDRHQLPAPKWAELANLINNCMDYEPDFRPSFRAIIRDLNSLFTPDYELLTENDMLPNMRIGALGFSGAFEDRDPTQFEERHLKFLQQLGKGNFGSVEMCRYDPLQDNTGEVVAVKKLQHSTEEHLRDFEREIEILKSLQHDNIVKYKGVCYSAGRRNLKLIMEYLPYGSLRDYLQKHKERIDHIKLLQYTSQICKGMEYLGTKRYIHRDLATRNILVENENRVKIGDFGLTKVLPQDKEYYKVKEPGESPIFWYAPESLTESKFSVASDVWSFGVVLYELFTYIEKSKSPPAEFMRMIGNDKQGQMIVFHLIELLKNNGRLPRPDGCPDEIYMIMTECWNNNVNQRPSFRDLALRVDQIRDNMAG

[19] = molecular target: T3, hGSK3b (Homo sapiens, UniProt P49841); assay: Cerep LANCE kinase assay hGSK3b (S1 assay 34); type: biochemical; conditions: read-out: GSK3b
T3 construct: purchased Cerep (LANCE kinase assay platform, contract assay)
T3 sequence (P49841 whole entry): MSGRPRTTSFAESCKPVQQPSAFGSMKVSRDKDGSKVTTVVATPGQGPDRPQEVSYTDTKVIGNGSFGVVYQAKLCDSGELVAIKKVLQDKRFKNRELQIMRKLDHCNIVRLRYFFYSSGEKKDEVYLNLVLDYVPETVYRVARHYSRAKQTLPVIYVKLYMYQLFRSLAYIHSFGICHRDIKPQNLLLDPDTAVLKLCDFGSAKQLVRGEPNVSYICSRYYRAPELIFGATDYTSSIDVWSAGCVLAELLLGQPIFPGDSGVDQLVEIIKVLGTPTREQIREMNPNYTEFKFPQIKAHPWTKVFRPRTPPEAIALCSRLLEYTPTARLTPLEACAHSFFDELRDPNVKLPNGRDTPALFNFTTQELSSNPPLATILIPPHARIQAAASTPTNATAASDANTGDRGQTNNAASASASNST

[20] = molecular target: T4, hp70S6K1 (RPS6KB1) (Homo sapiens, UniProt P23443); assay: Cerep LANCE kinase assay hp70S6K1 (S1 assay 31); type: biochemical; conditions: read-out: p70S6K1
T4 construct: purchased Cerep (LANCE kinase assay platform, contract assay)
T4 sequence (P23443 whole entry): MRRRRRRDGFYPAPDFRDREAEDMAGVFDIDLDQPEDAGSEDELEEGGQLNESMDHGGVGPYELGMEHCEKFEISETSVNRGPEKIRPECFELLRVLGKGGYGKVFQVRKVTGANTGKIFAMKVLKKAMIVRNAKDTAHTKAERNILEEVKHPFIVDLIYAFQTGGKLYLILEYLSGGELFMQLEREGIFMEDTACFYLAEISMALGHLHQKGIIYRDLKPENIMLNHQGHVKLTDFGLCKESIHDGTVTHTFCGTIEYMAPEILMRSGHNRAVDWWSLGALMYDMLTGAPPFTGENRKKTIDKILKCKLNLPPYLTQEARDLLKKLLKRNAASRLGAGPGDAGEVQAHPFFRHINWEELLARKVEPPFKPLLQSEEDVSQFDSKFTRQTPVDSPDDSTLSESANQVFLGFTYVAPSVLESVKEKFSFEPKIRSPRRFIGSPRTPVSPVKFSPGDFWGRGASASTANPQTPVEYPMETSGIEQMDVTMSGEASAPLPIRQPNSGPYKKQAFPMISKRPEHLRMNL

[21] = molecular target: T5, hFLT3 (Homo sapiens, UniProt P36888); assay: Cerep LANCE kinase assay hFLT3 (S1 assay 35); type: biochemical; conditions: read-out: FLT3
T5 construct: purchased Cerep (LANCE kinase assay platform, contract assay)
T5 sequence (P36888 27-993): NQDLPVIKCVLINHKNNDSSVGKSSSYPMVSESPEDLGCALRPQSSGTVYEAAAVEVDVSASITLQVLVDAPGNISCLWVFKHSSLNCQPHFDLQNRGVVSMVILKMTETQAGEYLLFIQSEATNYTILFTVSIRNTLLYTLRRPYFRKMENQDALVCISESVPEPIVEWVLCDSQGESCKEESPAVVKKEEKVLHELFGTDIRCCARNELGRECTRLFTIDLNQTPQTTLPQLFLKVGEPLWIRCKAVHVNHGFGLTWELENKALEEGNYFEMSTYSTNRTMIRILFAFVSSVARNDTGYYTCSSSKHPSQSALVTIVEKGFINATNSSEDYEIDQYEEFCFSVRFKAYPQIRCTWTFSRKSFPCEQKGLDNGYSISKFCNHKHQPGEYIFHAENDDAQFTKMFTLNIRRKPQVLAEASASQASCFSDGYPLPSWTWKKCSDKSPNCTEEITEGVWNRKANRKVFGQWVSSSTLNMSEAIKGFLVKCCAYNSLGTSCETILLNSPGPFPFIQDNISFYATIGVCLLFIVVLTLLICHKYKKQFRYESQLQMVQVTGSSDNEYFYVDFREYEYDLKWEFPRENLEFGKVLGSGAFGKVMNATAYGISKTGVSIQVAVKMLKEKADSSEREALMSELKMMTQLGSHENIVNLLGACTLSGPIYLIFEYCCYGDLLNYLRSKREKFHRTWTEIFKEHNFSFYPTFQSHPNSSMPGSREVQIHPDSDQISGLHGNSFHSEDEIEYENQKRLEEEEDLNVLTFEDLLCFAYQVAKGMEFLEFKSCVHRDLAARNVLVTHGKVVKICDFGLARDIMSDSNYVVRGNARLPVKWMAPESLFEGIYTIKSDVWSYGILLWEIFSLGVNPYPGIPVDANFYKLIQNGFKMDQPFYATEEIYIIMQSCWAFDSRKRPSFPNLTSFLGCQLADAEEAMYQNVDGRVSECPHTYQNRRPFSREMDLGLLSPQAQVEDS

## O.O.O.O.O=C1OC2(c3cc(Br)c([O-])cc3Oc3c2cc(Br)c([O-])[c]3[Hg])c2ccccc21.[Na+].[Na+] (stereo not shown) [NCGC00262588-02]
[1]
  WntCondMedia_Alk Phos C2C12 IC50/EC50: > 20 µM
[2]
  WntCondMedia_bCatenin C2C12 IC50/EC50: 16.8578 µM

## C=CC(=O)Nc1cc2c(Nc3ccc(F)c(Cl)c3)ncnc2cc1OCCCN1CCOCC1 [NCGC00182713-01]
[3]; assay number 14, 2N
  Hela CellCycMod PI 2N IC50/EC50: 8.8729 µM
[3]
  Hela CellCycMod PI S Phase IC50/EC50: > 10 µM
[3]; assay number 16, 4N
  Hela CellCycMod PI 4N IC50/EC50: > 10 µM
[3]; assay number 17, MI
  Hela CellCycMod PI MI IC50/EC50: 4.2934 µM
[3]; assay number 18, cell number
  Hela CellCycMod PI Cell Number IC50/EC50: 2.0936 µM
[1]
  WntCondMedia_Alk Phos C2C12 IC50/EC50: 9.4628 µM
[2]
  WntCondMedia_bCatenin C2C12 IC50/EC50: 1.0017 µM

## CN1CCCC(CC2c3ccccc3Sc3ccccc32)C1.Cl (stereo not shown) [NCGC00273481-01]
[4]
  mSTC-1 GLP1 Secretion IC50/EC50: > 40 µM
[5]
  Basal_Viability ATP SW480 IC50/EC50: 4.7038 µM
[6]
  Basal_Viability ATP HT-29 IC50/EC50: 6.4328 µM
[3]
  Hela CellCycMod PI 2N IC50/EC50: > 10 µM
  Hela CellCycMod PI 4N IC50/EC50: > 10 µM
  Hela CellCycMod PI Cell Number IC50/EC50: > 10 µM
  Hela CellCycMod PI MI IC50/EC50: > 10 µM
[7]
  5mMGluc_INS1E SecretionMod IC50/EC50: > 11.11 µM
[8]
  Basal_Viability ATP RKO IC50/EC50: 3.4891 µM
[9]
  Basal_Viability ATP SNU-C1 IC50/EC50: 15.0863 µM
[10]
  Basal_Viability ATP HCT116 IC50/EC50: > 20 µM
[11]
  VEGF_ADSC\ECFC Angio CD31 TubeArea IC50/EC50: 8.6842 µM
[12]
  GSK3b inh pretreated_Viability ATP HCT116 IC50/EC50: 8.6816 µM
[13]
  hNCI-H716 GLP1 Secretion IC50/EC50: > 40 µM
[14]
  VEGF_ADSC\ECFC Angio Hoechst NucArea IC50/EC50: > 10 µM
[15]
  Basal_Viability ATP Colo 320 IC50/EC50: > 20 µM
[16]
  Basal_Viability ATP DLD-1 IC50/EC50: > 20 µM

## Cc1cc(CC(C)CC(C)(C)C)n(O)c(=O)c1 (stereo not shown) [NCGC00167586-03]
[3]; assay number 14, 2N
  Hela CellCycMod PI 2N IC50/EC50: > 10 µM
[3]
  Hela CellCycMod PI S Phase IC50/EC50: > 10 µM
[3]; assay number 16, 4N
  Hela CellCycMod PI 4N IC50/EC50: > 10 µM
[3]; assay number 17, MI
  Hela CellCycMod PI MI IC50/EC50: > 10 µM
[3]; assay number 18, cell number
  Hela CellCycMod PI Cell Number IC50/EC50: 0.1332 µM
[1]
  WntCondMedia_Alk Phos C2C12 IC50/EC50: > 20 µM
[2]
  WntCondMedia_bCatenin C2C12 IC50/EC50: 0.5913 µM

## CCCCCCCCCCCCCC[N+](C)(C)Cc1ccccc1 [NCGC00187943-02]
[11]
  VEGF_ADSC\ECFC Angio CD31 TubeArea IC50/EC50: 3.0091 µM
[1]
  WntCondMedia_Alk Phos C2C12 IC50/EC50: > 20 µM
[2]
  WntCondMedia_bCatenin C2C12 IC50/EC50: > 20 µM
[14]
  VEGF_ADSC\ECFC Angio Hoechst NucArea IC50/EC50: 8.357 µM

## Cc1c2oc3c(C)ccc(C(=O)N[C@@H]4C(=O)N[C@H](C(C)C)C(=O)N5CCC[C@H]5C(=O)N(C)CC(=O)N(C)[C@@H](C(C)C)C(=O)O[C@@H]4C)c3nc-2c(C(=O)N[C@@H]2C(=O)N[C@H](C(C)C)C(=O)N3CCC[C@H]3C(=O)N(C)CC(=O)N(C)[C@@H](C(C)C)C(=O)O[C@@H]2C)c(N)c1=O [NCGC00271789-02] (I: T[dV]P[Sar][NMeV] / II: T[dV]P[Sar][NMeV]; ester I:1-I:C, II:1-II:C; linker I:N-II:N via Actinocin(9to1))
[11]
  VEGF_ADSC\ECFC Angio CD31 TubeArea IC50/EC50: 0.001 µM
[1]
  WntCondMedia_Alk Phos C2C12 IC50/EC50: 0.0015 µM
[2]
  WntCondMedia_bCatenin C2C12 IC50/EC50: 0.037 µM
[14]
  VEGF_ADSC\ECFC Angio Hoechst NucArea IC50/EC50: 0.04031 µM

## Cc1cc(OI)c(C(C)C)cc1-c1cc(C(C)C)c(OI)cc1C [NCGC00159504-04]
[4]; concentration response
  IC50/EC50, mSTC-1 GLP1 Secretion (assay number 13): 15.1081 µM
[7]; 5 mM glucose
  IC50/EC50, 5mMGluc_INS1E SecretionMod (assay number 8): > 33.33 µM
[11]
  IC50/EC50, VEGF_ADSC\ECFC Angio CD31 TubeArea (assay number 2): > 10 µM
[13]; concentration response
  IC50/EC50, hNCI-H716 GLP1 Secretion (assay number 12): > 40 µM
[14]
  IC50/EC50, VEGF_ADSC\ECFC Angio Hoechst NucArea (assay number 3): > 10 µM

## CC(C)CCCC(C)NCCC(C)C (stereo not shown) [NCGC00261980-01]
[4]; assay number 13
  mSTC-1 GLP1 Secretion IC50/EC50: > 40 µM
[7]; assay number 8, 5 mM glucose
  5mMGluc_INS1E SecretionMod IC50/EC50: > 33.33 µM
[11]
  VEGF_ADSC\ECFC Angio CD31 TubeArea IC50/EC50: > 10 µM
[13]; assay number 12
  hNCI-H716 GLP1 Secretion IC50/EC50: > 40 µM
[14]
  VEGF_ADSC\ECFC Angio Hoechst NucArea IC50/EC50: > 10 µM

## Cc1ccc([N+](=O)[O-])[c]2c1[O][Hg]2 [nitromersol, reference compound]
[17]
  IC50: 16.8 µM
[4]
  activity in STC-1 GLP-1 secretion assay (in words): potent actives
[5]; basal, read-out: Basal_Viability ATP SW480
  IC50: 1130 nM
[18]
  IC50: > 20 µM
[19]
  IC50: 8.37 µM
[6]; basal, read-out: Basal_Viability ATP HT-29
  IC50: 1440 nM
[20]
  IC50: > 20 µM
[3]; IC50 / EC50, HeLa, read-out: CellCycle G2/M
  EC50: > 10 µM
[7]; IC50 / EC50, INS-1E, read-out: Insulin Secretion
  EC50: > 20 µM
[9]; basal, read-out: Basal_Viability ATP SNU-C1
  IC50: 202 nM
[10]; basal, read-out: Basal_Viability ATP HCT116
  IC50: 2830 nM
[11]; IC50 / EC50, endothelial tube area, ADSC/ECFC co-culture, read-out: Anti-Angiogenesis
  IC50: 668 nM
[12]; GSK3b inhibitor pretreated, read-out: GSK3b inh pretreated_Viability ATP HCT116
  IC50: > 20 µM
[2]; IC50 / EC50, C2C12 beta-catenin translocation, read-out: Wnt Pathway
  EC50: 155 nM
[13]
  activity in NCI-H716 GLP-1 secretion assay (in words): potent actives
[13]; IC50 / EC50, NCI-H716, read-out: GLP 1 Secretion
  EC50: 97.2 nM
[15]; basal, read-out: Basal_Viability ATP Colo 320
  IC50: 935 nM
[21]
  IC50: 10.4 µM
[16]; basal, read-out: Basal_Viability ATP DLD-1
  IC50: 1620 nM
